US7888042B2, “Methods for identifying insulin mimetics” (Ohio University, priority 2005, dated 2011)
Values joined by “and” are separate entries in the source; they are usually repeats but may differ in a detail not shown here. Equal entries are not always repeated.

Columns and labels:
[1] = target: T1, pure recombinant glycosylated IR (Homo sapiens, UniProt P06213); assay: Surface plasmon resonance binding to IR; settings: SPR, IR bound to NTA chip; read-out: apparent binding affinity (Kd) to IR
T1 construct: purchased R&D Systems, Inc
T1 sequence (P06213 28-746 isoform P06213-2 limits assumed): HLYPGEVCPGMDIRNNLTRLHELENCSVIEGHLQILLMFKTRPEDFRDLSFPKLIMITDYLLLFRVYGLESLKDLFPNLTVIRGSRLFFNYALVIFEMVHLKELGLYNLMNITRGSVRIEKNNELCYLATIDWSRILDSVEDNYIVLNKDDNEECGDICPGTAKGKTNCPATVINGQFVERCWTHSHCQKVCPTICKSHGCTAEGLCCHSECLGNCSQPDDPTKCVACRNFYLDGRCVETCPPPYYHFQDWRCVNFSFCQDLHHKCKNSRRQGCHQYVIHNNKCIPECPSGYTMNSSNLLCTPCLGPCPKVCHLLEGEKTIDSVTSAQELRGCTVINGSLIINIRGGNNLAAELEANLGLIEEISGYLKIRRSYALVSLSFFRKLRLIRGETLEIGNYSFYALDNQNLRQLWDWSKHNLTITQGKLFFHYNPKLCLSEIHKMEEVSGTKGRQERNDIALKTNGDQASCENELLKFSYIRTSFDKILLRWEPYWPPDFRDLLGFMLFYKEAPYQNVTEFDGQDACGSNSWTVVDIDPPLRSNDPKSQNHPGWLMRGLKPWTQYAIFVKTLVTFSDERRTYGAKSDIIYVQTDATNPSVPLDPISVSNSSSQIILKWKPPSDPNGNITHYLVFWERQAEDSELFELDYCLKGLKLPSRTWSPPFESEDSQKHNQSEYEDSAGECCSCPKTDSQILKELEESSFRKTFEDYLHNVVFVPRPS
T1 sequence (P06213 763-956 limits assumed): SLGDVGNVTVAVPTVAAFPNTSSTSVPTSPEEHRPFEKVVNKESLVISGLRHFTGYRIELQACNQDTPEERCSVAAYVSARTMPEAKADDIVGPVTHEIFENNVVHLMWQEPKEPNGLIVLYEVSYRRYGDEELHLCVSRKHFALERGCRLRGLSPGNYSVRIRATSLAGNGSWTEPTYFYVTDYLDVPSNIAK
Protocol: (A) α-PGG binds to IR as measured by a SPR (28). Increasing concentrations of α-PGG was injected into the system to interact with the pure IR attached to the gold surface of the biosensor chip. The binding, represented in arbitrary response units, was automatically plotted against α-PGG concentrations to generate the binding curve. (B) Insulin binding to IR in the absence or presence of α-PGG. Increasing amounts of ^125I-labeled insulin were added to WGA-coated wells containing pre-bound IR isolated from CHO-IR cells in the absence of α-PGG or in the presence of 30 μM or 50 μM of α-PGG. After overnight incubation, removal of excessive ligands, and washing, the bound radioactive insulin was measured. (C) Insulin displacement by α-PGG. Fixed amounts of radioactive insulin (1 nM) were added to each of the WGA-coated wells pre-bound with IR. Increasing amounts of α-PGG were added to the wells to displace the ^125I-labeled insulin. […]
Insulin receptor binding studies. […] After sensograms of α-PGG-IR binding at different concentrations were recorded, the binding affinity was analyzed using BIAevaluation software. […] The bound ligand was detached (eluted) from the receptor with 2×200 μL 0.2M Glycine pH 2.8, and measured for its radioactivity using a Beckman Coulter LS 6400 Multi-Purpose Scintillation Counter. […] The receptor binding results were analyzed with the software GraphPad Prism.

ob/ob mice = assay: Plasma insulin in ob/ob mice, ip injection; type: in vivo; settings: single ip injection 20 mg/kg
Protocol: Either 6-8 week old male db/db mice or 8-12 week old male ob/ob mice were treated with aqueous solutions of α-PGG by either oral delivery (˜10 μL, A & B) or ip injection (˜50 μL, C, & D). (n=8-10, mean±SD, one-way ANOVA). α-PGG (●); vehicle (∘). α-PGG (20 mg/kg) was orally delivered without glucose to fasting db/db mice (A *, P<0.02; **, P<0.01; ***, P<0.001) or with glucose (0.4 g/kg body weight) to fasting ob/ob mice (B, glucose tolerance test). α-PGG (20 mg/kg) was ip injected into ob/ob mice on day 0 and day 4 (C). A single ip injection (20 mg/kg) of α-PGG was administered to ob/ob mice (D). Glucose (A, B, C) or insulin (D) was determined from sera or plasma isolated from tail vein blood. Animal studies. Genetically diabetic db/db mice or obese ob/ob mice were purchased from Jackson Lab. Male mice of 2-3 months of age were used. Unless otherwise stated, 10 mice (N=10) were used per group. α-PGG was either orally administered or intraperitoneally (ip) injected in the form of an aqueous solution at 20 mg/kg body weight with a 1-cc sterile plastic syringe. At different times after the α-PGG administration, blood or plasma was collected from the tail vein for measurement of glucose and insulin concentrations using commercial kits. Vehicle (aqueous solution) treated mice were used as controls and were statistically compared with the α-PGG treated mice. […]

insulin = insulin (Bos taurus, UniProt P01317); assay: Binding of α-PGG to insulin
insulin, sequence (P01317 25-54 limits assumed): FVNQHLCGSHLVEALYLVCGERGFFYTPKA

Kd [1]: 43 µM and ~43 µM | binding to insulin (insulin): did not bind to insulin
Compound: O=C(OC[C@H]1O[C@H](OC(=O)c2cc(O)c(O)c(O)c2)[C@H](OC(=O)c2cc(O)c(O)c(O)c2)[C@@H](OC(=O)c2cc(O)c(O)c(O)c2)[C@@H]1OC(=O)c1cc(O)c(O)c(O)c1)c1cc(O)c(O)c(O)c1 [α-PGG, alpha 1,2,3,4,6-penta-O-galloyl-D-Glucopyranose]
plasma insulin levels (ob/ob mice; hyperinsulinemic ob/ob mice): significantly lower | duration of anti-hyperinsulinemic effects (ob/ob mice; ob/ob mice): at least 24 hours
